Assay results taken from patent US8232273B2, “Heterocyclic compounds and methods of use” (Genentech, Inc., priority 2008, dated 2012).
pEC50, pKi: −log10 of the molar value.

Experiments:
[1] = target: Bcl-xL (GST-Bcl-xL) (Homo sapiens, UniProt Q07817); test: TR-FRET binding assay, competition with F-Bak for the Bcl-xL binding site; conditions: values listed in the order of Table 1, read-out: TR-FRET assay results (Ki), Bcl-xL
[2] = target: T1, Bcl-2 (GST-Bcl-2) (Homo sapiens, UniProt P10415); test: TR-FRET binding assay, competition with F-Bak for the Bcl-2 binding site; conditions: Bcl-2, for comparison (selectivity)
T1 construct: made in house
T1 sequence (P10415 whole entry, species assumed): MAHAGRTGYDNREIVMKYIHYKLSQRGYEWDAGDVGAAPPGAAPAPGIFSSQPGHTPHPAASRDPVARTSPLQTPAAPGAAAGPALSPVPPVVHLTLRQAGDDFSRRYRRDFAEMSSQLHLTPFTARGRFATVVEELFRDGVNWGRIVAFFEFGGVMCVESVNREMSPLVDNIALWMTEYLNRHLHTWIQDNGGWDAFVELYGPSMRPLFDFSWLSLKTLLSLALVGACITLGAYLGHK
Experimental: For each assay plate, a probe/antibody and protein/antibody/probe mixture were included as a negative and a positive control, respectively. Fluorescence was measured on the Envision (Perkin Elmer) using a 340/35 nm excitation filter and 520/525 (F-Bak) and 495/510 nm (Tb-labeled anti-his antibody) emission filters. Dissociation constants (Ki) were determined using Wang's equation (see, Wang, Z. X. An exact mathematical expression for describing competitive binding of two different ligands to a protein molecule. FEBS Lett. 1995 360:111-114). The TR-FRET assay can be performed in the presence of varying concentrations of human serum (HS) or fetal bovine serum (FBS). For comparison, the measurement of the competition of compounds of the invention for other Bcl-2 family protein binding sites (e.g., Bcl-2, Mcl-1) using the TR-FRET binding assay was accomplish by substituting GST-Bcl-xL in the TR-FRET assay with other GST-labeled protein, e.g., GST-Bcl-2, GST-Mcl-1, prepared in-house.

[3] = system: Mcl-1-/- mouse embryonic fibroblasts (MEF); test: Cell viability assay for Mcl-1-/- mouse embryonic fibroblasts (CellTiter-Glo); format: cell-based; conditions: Fibroblast, in the presence of 10% Fetal Bovine Serum, read-out: MEF Mcl-1-/- KO cell viability results (EC50)
Text: a. Cell Viability Assay for Mcl-1^−/− Mouse Embryonic Fibroblasts (MEF): […]
In this assay, Mcl-1^(−/−) cells were used to confirm that cell apoptosis in the presence of BH3 mimetic small molecules was due to predominantly Bcl-xL inactivation. This inactivation leaves Bax/Bak unconstrained and results in apoptosis. The […]-GLO Luminescent Cell Viability Assay is a homogeneous method of determining the number of viable cells in culture based on quantitation of the ATP present. The amount of ATP correlates with the presence of metabolically active cells such that following cell lysis the amount of ATP present is proportional to the amount of luminescence measured.
Mcl-1^(−/−) mouse embryonic fibroblasts (MEFs) are an adherent cell line prepared in house. MEFs were grown in Iwaki 75 cm^2 tissue culture flasks (cat #3123-075) with FMA media which consists of • 89% DME Kelso • 10% heat-inactivated foetal calf serum (FCS) (Hyclone cat #SH30396.03) • 1% 10 mM asparagine (Fluka cat #11149) • 275 μl of a 1:2000 dilution of 2-mercaptoethanol is added to the final 500 ml volume of FMA (Sigma cat #M7522; diluted in MT-PBS)
FMA was stored at 4° C. and used at 37° C. MEFs were cultured in FMA media and harvested in MT-PBS and trypsin. For MEF cell viability assays, cells were seeded separately in plates with 10% FCS-FMA and 1% FCS-FMA.
Assays were performed using white, flat clear-bottom Greiner 384-well tissue culture grade (Interpath #781098) plates. The compounds were made up in Matrical 384-well, 25 μl V-bottomed plates (cat #MP101-2-PP), sealed with aluminium foil from Beckman Coulter (cat #538619) and stored at 12° C. overnight. Compound preparation and titrations were performed in AnalaR grade DMSO (Merck cat #1.02952.2500). The cell viability detection assay used was […]-GLO™ which is commercially available from Promega (cat #G7572), stored at −20° C. and used at 37° C.
Compounds of the invention were prepared as 10 mM solution in 100% DMSO and stored at −20° C. Compounds were thawed to room temperature and dispensed into a 384 well Matrical plate. Standard control compounds, e.g. 32.3 mM Etoposide, were added to the plate as controls.
The media was aspirated and the Mcl-1^(−/−) cells washed with 10 mls of warmed MT-PBS. MT-PBS was aspirated and 1 ml of trypsin was added. The T75 flasks were incubated at 37° C. until the cells became detached. 4 ml of 10% FCS FMA media was added to the trypsinized cells and the entire volume was transferred to a 50 ml centrifuge tube and centrifuged for 3 minutes at 250 g. The supernatant was aspirated and the pellet resuspended in 10 ml of 10% FCS FMA. 3 ml of this cell suspension was added to a clean 75 cm^2 flask containing 17 ml of 10% FCS FMA media, thus performing a 3:10 split. The remaining cell suspension was used to perform a 1:50 split into another 75 cm^2 flask for further culturing.
Cells were harvested as per method step 1 and the pellet resuspended in 3 mls 10% FCS FMA. Cell number was determined by counting in a Neubauer haemocytometer and the dilution calculated to achieve a density of 1×10^4 cells ml^−1 (500 cells per well in 50 μl media). Separate dilutions were prepared in 50 ml 10% FCS FMA and 50 ml 1% FCS FMA solutions respectively.
Four assay plates were set up per compound plate. Two 384 well plates containing Mcl-1^(−/−) cells in 10% FCS FMA and the other two plates containing Mcl-1^(−/−) cells in 1% FCS FMA.
Using the Multidrop, 25 μl cells were dispensed aseptically into all 384 wells of the assay plates. Plates were left to rest in a non-stacked layer at room temperature for approximately 30 minutes (minimizes edge-effects) and then were placed as a single layer in the 37° C. incubator. The plates were left to incubate overnight.
The compound plates were titrated by performing a 3-fold 11-point dilution series using 100% DMSO on the MiniTrak. Following titration of the compounds, 100 nl of compounds were added to the cell plates using the Zymark Sciclone Pintool. […]

[4] = system: platelets; test: Cell viability assay for platelets (platelet rich plasma, CellTiter-Glo); format: cell-based; conditions: approximately 4 hours at 37 C
Experimental: Platelet rich plasma (PRP) was incubated with a compound of the invention for approximately 4 hours at 37° C. After incubation, platelets were equilibrated to room temperature for 20 minutes and then and equal volume of CELL TITER-GLO™ reagent (Promega Corporation) was added. Samples were mixed for two minutes and then allowed to equilibrate for an additional 10 minutes at room temperature. The luminescence generated from the samples was quantitated using a LJL Analyst plate reader. Data analysis was performed using GraphPad Prism 4.0.

[5] = system: NCI-H146 human small cell lung carcinoma cells; test: Cellular viability of human tumor cell line NCI-H146 (MTS assay); format: cell-based; conditions: 10% human serum, 48 hours of compound treatment
Experimental: NCI-H146 (ATCC, Manassas, Va.) human small cell lung carcinoma cells were plated 50,000 cells per well in 96-well tissue culture plates in a total volume of 100 μL tissue culture medium supplemented with 10% human serum (Invitrogen, Carlsbad, Calif.) and treated with a 2-fold serial dilution of the compounds of interest from 10 μM to […].
Each concentration was tested in duplicate at least 3 separate times. The number of viable cells following 48 hours of compound treatment was determined using the […] 96® Aqueous non-radioactive cell proliferation MTS assay according to manufacturer's recommendations (Promega Corp., Madison, Wis.).

[6] = system: Bcl-2, Bcl-w and Bcl-xL; conditions: cited from earlier work
[7] = system: Mcl-1 and A1; conditions: cited from earlier work
[8] = system: xenograft models; conditions: animal studies, single agent; cited from earlier work

Bcl-xL (GST-Bcl-xL), sequence (Q07817 whole entry, species assumed): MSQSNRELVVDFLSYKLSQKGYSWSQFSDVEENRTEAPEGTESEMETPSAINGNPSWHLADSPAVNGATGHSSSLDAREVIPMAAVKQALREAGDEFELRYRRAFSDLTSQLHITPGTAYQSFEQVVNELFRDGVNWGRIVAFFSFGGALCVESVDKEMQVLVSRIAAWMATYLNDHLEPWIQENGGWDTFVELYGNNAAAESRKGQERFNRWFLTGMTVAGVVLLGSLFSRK

Structure (SMILES)	pKi [1]	pKi [2]	pEC50 [3]	pEC50 [4]	pEC50 [5]	binding to Bcl-2, Bcl-w and Bcl-xL [6]	binding to Mcl-1 and A1 [7]	cytotoxic activity in certain xenograft models as single agents [8]
CN(C)CC#Cc1ccc(OCCCc2sc(N3CCc4cccc(C(=O)Nc5nc6ccccc6s5)c4C3)nc2C(=O)O)cc1 [Example 74, 2-[8-(Benzothiazol-2-ylcarbamoyl)-3,4-dihydro-1H-isoquinolin-2-yl]-5-{3-[4-(3-dimethylamino-prop-1-ynyl)-phenoxy]-propyl}-thiazole-4-carboxylic acid]	10.30	7.22	8.15	7.68	6.15			
CN1CCN(c2ccc(OCCCc3sc(N4CCc5cccc(C(=O)Nc6nc7ccccc7s6)c5C4)nc3C(=O)O)cc2)CC1 [Example 82, 2-[8-(Benzothiazol-2-ylcarbamoyl)-3,4-dihydro-1H-isoquinolin-2-yl]-5-{3-[4-(4-methyl-piperazin-1-yl)-phenoxy]-propyl}-thiazole-4-carboxylic acid]	10.30	6.92	7.52		5.60			
CN(C)CC[C@H](CSc1ccccc1)Nc1ccc(S(=O)(=O)NC(=O)c2ccc(N3CCN(Cc4ccccc4-c4ccc(Cl)cc4)CC3)cc2)cc1[N+](=O)[O-] [ABT-737, N-(4-(4-((4′-chloro(1,1′-biphenyl)-2-yl)methyl)piperazin-1-yl)benzoyl)-4-(((1R)-3-(dimethylamino)-1-((phenylsulfanyl)methyl)propyl)amino)-3-nitrobenzenesulfonamide]						bind strongly	only weakly	demonstrated cytotoxic activity
CN1CCN(c2ccc(OCCCc3ccc(N4CCc5cccc(C(=O)Nc6nc7ccccc7s6)c5C4)nc3C(=O)O)cc2)CC1 [Example 94, 6-[8-(Benzothiazol-2-ylcarbamoyl)-3,4-dihydro-1H-isoquinolin-2-yl]-3-{3-[4-(4-methyl-piperazin-1-yl)-phenoxy]-propyl}-pyridine-2-carboxylic acid]	8.70	6.24	6.35					
CN1CCN(CCCNc2ncnc3c2cnn3-c2ccc(OCCCc3sc(N4CCc5cccc(C(=O)Nc6nc7ccccc7s6)c5C4)nc3C(=O)O)cc2)CC1 [Example 84, 2-(8-(benzo[d]thiazol-2-ylcarbamoyl)-3,4-dihydroisoquinolin-2(1H)-yl)-5-(3-(4-(4-(3-(4-methylpiperazin-1-yl)propylamino)-1H-pyrazolo[3,4-d]pyrimidin-1-yl)phenoxy)propyl)thiazole-4-carboxylic acid]	10.30	6.85	7.66		6.21			
CC1(C)CCC(c2ccc(Cl)cc2)=C(CN2CCN(c3ccc(C(=O)NS(=O)(=O)c4ccc(N[C@H](CCN5CCOCC5)CSc5ccccc5)c(S(=O)(=O)C(F)(F)F)c4)cc3)CC2)C1 [ABT-263, N-(4-(4-((2-(4-chlorophenyl)-5,5-dimethyl-1-cyclohex-1-en-1-yl)methyl)piperazin-1-yl)benzoyl)-4-(((1R)-3-(morpholin-4-yl)-1-((phenylsulfanyl)methyl)propyl)amino)-3-((trifluoromethyl)sulfonyl)benzenesulfonamide]						bind strongly	only weakly	demonstrated cytotoxic activity
CN1CCN(c2ccc(OCCCc3sc(N4CCc5cccc(C(=O)Nc6nc7ccccc7s6)c5C4)nc3C(=O)O)c(F)c2)CC1 [Example 93, 2-[8-(Benzothiazol-2-ylcarbamoyl)-3,4-dihydro-1H-isoquinolin-2-yl]-5-{3-[2-fluoro-4-(4-methyl-piperazin-1-yl)-phenoxy]-propyl}-thiazole-4-carboxylic acid]	10.30	6.81			5.49			
CN(C)CC#Cc1ccc(OCCCc2ccc(N3CCc4cccc(C(=O)Nc5nc6ccccc6s5)c4C3)nc2C(=O)O)c(F)c1 [Example 97, 6-(8-(benzo[d]thiazol-2-ylcarbamoyl)-3,4-dihydroisoquinolin-2(1H)-yl)-3-(3-(4-(3-(dimethylamino)prop-1-ynyl)-2-fluorophenoxy)propyl)picolinic acid]	10.30	6.57	7.59	8.52	5.62			
O=C(Nc1nc2ccccc2s1)c1cccc2c1CN(c1nc(C(=O)O)c(CCCOc3ccc(OCCN4CCOCC4)cc3)s1)CC2 [Example 88, 2-[8-(Benzothiazol-2-ylcarbamoyl)-3,4-dihydro-1H-isoquinolin-2-yl]-5-{3-[4-(2-morpholin-4-yl-ethoxy)-phenoxy]-propyl}-thiazole-4-carboxylic acid]	10.30	6.52	7.55	8.52				
